# Values quoted from earlier work, collected in patent publication US6710071B2, “Difluoromethylene aromatic ethers as inhibitors of glycine transport” (Pfizer Inc, priority 2001, dated 2004).
# Test system: NMDA receptor
# Details: effect blocked by a specific NMDA-site antagonist and a glycine-site antagonist
smiles,measurement,value
CN(CCC(Oc1ccc(-c2ccccc2)cc1)c1ccc(F)cc1)CC(=O)O (stereo not shown) [NFPS],post synaptic current driven by the NMDA receptor,increased
